Laboratory results: patent US8470765B2, “Polypeptides and antibacterial or antiseptic use of same” (AnGes MG, Inc., priority 2009, dated 2013)
No end group written: not given here.

Legend:
Assay type in all cases: cell-based
[1] = tested on: Pseudomonas aeruginosa ATCC 27853; test: microbe, parasite or virus in culture; conditions: Table 5; unit not given
Procedure: (§1) Bacteria (Escherichia coli ATCC 25922, Pseudomonas aeruginosa ATCC 27853, Staphylococcus aureus ATCC29213, Klebsiella pneumoniae JCM 1662, Enterobacter cloacae JCM 1232, Enterobacter aerogenes JCM 1235 and Staphylococcus epidermidis JCM 2414) were inoculated to Mueller-Hinton broth: MHB or LB medium, and cultured at a temperature and period suited for each strain. From the thus obtained colonies, each strain was inoculated to a fresh liquid medium and cultured for 16 to 20 hours. Then an aliquot having a volume (10 to 50 appropriate to each strain was inoculated to a fresh liquid medium and cultured for 4 to 6 hours, followed by the measurement of the absorbance at 600 nm. After comparing the turbidity with McFarland #0.5, the resultant was diluted with a medium. Each strain was added to about 10^5 CFU/mL (final concentration). Each of the peptide solutions to be tested was diluted with MHB to obtain a solution of 128 μg/mL. […] As controls, tobramycin (TOB: aminoglucoside antibiotic), oxacillin (OX:β-lactam antibiotic), meropenem (MEPM: carbapenem antibiotic) and ciprofloxacin (new quinolone antibiotic) were used. […] To a 96-well microtiter plate, 0.1 mL of the inoculation solution and 0.1 mL of the peptide- or positive control-containing medium having the respective concentration were added, and cultured at 37° C. for 16 to 24 hours (or a time period suited for the growth of the respective strain). The well not containing the sample was used as a negative control. After the culturing, the growth was visually observed, and the minimum concentration at which the growth was inhibited was defined as the minimum growth inhibition concentration (MIC). The medium used in this test for bacteria was Mueller-Hinton broth. Independent experiments were carried out twice or more for each strain.

[2] = tested on: Staphylococcus epidermidis JCM 2414; test: microbe, parasite or virus in culture; conditions: Table 5; unit not given
Procedure: as §1

[3] = tested on: Escherichia coli ATCC 25922; test: microbe, parasite or virus in culture; conditions: Table 5; unit not given
Procedure: as §1

[4] = tested on: Staphylococcus aureus ATCC29213; test: microbe, parasite or virus in culture; conditions: Table 5; unit not given
Procedure: as §1

[5] = tested on: Pseudomonas aeruginosa ATCC 27853; test: ATP Assay (viability at 3 hours), Table 6; conditions: 3 h, 5 μg/mL
Procedure: (§2) Bacteria (Escherichia coli ATCC 25922, Pseudomonas aeruginosa ATCC 27853, Staphylococcus aureus ATCC29213, and Staphylococcus epidermidis JCM 2414) were inoculated to Mueller-Hinton broth: MHB or LB medium, and cultured at a temperature and period suited for each strain. From the thus obtained colonies, each strain was inoculated to a fresh liquid medium and cultured for 16 to 20 hours. Then an aliquot having a volume (10 to 50 μL) appropriate to each strain was inoculated to a fresh liquid medium and cultured for 4 to 6 hours, followed by the measurement of the absorbance at 600 nm. After comparing the turbidity with McFarland #0.5, the resultant was diluted with a medium. Each strain was added to about 10^5 CFU/mL (final concentration).
(§3) Each of the peptide solutions to be tested was diluted with the medium to obtain a solution of 10 μg/mL. As positive controls, tobramycin (TOB), oxacillin (OX) and meropenem (MEPM) were used. By dilution with sterilized purified water to 1.0 mg/mL, positive control-containing media having concentrations of […], respectively for TOB; 0.5, 0.12 and 0.06 μg/mL, respectively, for OX; and 1.0, 0.25, 0.12, 0.06, 0.03 and 0.008 μg/mL respectively, for MEPM, were prepared. To a 96-well microtiter plate, 0.1 mL of the inoculation solution and 0.1 mL of the peptide- or positive control-containing medium having the respective concentration were added, and cultured at 37° C. for 3 hours. The well not containing the sample was used as a negative control. After the culturing, ATP was measured using BacTiter-Glo Microbial Cell Viability Assay kit of PROMEGA, and compared with that in the negative control to obtain a relative value which was defined as a viability. The antibacterial activity was evaluated based on the viability at 3 hours later using ATP as an index.
(§4) The medium used in this test for bacteria was Mueller-Hinton broth. Independent experiments were carried out twice for each strain.

[6] = tested on: Escherichia coli ATCC 25922; test: ATP Assay (viability at 3 hours), Table 6; conditions: 3 h, 5 μg/mL
Procedure: as §2, §3, §4

[7] = tested on: Staphylococcus aureus ATCC29213; test: ATP Assay (viability at 3 hours), Table 6; conditions: 3 h, 5 μg/mL
Procedure: as §2, §3, §4

Substance | MIC Pseudomonas aeruginosa [1] | MIC Staphylococcus epidermidis [2] | MIC Escherichia coli [3] | MIC Staphylococcus aureus [4] | Pseudomonas aeruginosa ATP (viability, relative value to negative control) [5] | Escherichia coli ATP (viability, relative value to negative control) [6] | Staphylococcus aureus ATP (viability, relative value to negative control) [7]
Ac-RLKRLGERLKRKIQKLIRL-NH2 [SRP-33] | 8-16 | 8-16 | 8-16 | 16 | 2.8 | 2.9 | 1.6
GERLKRKIQKWIRW-NH2 [SRP-26] | 16 | 16-32 | 16-32 | 16 | 6.2 | 9.0 | 12.9
GRLKRIGERLKRKIQKWIRW-NH2 [SRP-24] | 8-16 | 8-32 | 16 | 16 | 1.3 | 8.2 | 2.7
GRLKRLGERLKRKIQKLIRL-NH2 [SRP-27] | 8-16 | 8-16 | 16 | 16 | 2.1 | 5.6 | 3.2
GRLKRLGERLKRKIQKWIRW-NH2 [SRP-22] | 8-16 | 8 | 8-16 | 8-16 | 1.4 | 4.5 | 5.0
GRLKRLGKRLKRKIQKLARL-NH2 [SRP-32] | 8-16 | 4-8 | 16 | 16 | 1.6 | 7.0 | 5.2
GRLKRVGERLKRKIQKWIRW-NH2 [SRP-23] | 8-16 | 8-16 | 16 | 8-16 | 1.5 | 2.8 | 3.0
KRLGERLKRKIQKLIRL-NH2 [SRP-30] | 8-16 | 8-16 | 64 | 16-64 | 2.0 | 19.9 | 6.3
LKRLGERLKRKIQKLIRL-NH2 [SRP-29] | 8 | 8 | 16-32 | 16-32 | 1.8 | 9.0 | 1.9
MGERLKRKIQKWIRW-NH2 [SRP-25] | 16 | 8-32 | 16 | 16 | 15.4 | 23.5 | 10.9
RLGERLKRKIQKLIRL-NH2 [SRP-31] | 16 | 8-16 | 32-64 | 32-64 | 9.7 | 27.4 | 19.7
RLKRLGERLKRKIQKL-NH2 [SRP-36] | 8-16 | 8 | 16-32 | 16-32 | 2.0 | 6.4 | 3.6
RLKRLGERLKRKIQKLI-NH2 [SRP-35] | 8-16 | 8 | 8-16 | 16-32 | 5.2 | 3.6 | 2.1
RLKRLGERLKRKIQKLIR-NH2 [SRP-34] | 8-16 | 8-16 | 8-16 | 16-32 | 2.8 | 4.4 | 2.6
RLKRLGERLKRKIQKLIRL-NH2 [SRP-28] | 4-8 | 8-16 | 16 | 16 | 1.4 | 7.1 | 5.2
